From a compilation of properties of binary mixtures (doi:10.1016/j.molliq.2018.08.031)

Assay: xn = mol fraction of the nth substance listed
Details: 100 kPa

COCCOCCOC + CCCC[n+]1ccn(C)c1.F[P-](F)(F)(F)(F)F
Details	viscosity [mPa·s]
283.15 K, x2 = 0.0571	2.381
283.15 K, x2 = 0.1013	3.238
283.15 K, x2 = 0.2923	11.69
283.15 K, x2 = 0.39	19.81
283.15 K, x2 = 0.492	37.5
283.15 K, x2 = 0.6827	114.6
283.15 K, x2 = 0.9711	618
293.15 K, x2 = 0.057	1.99
293.15 K, x2 = 0.1982	4.59
293.15 K, x2 = 0.2963	7.91
293.15 K, x2 = 0.3913	14.79
293.15 K, x2 = 0.5865	39.52
293.15 K, x2 = 0.6814	66.5
293.15 K, x2 = 0.7968	124.3
293.15 K, x2 = 0.892	209.7
303.15 K, x2 = 0.0995	1.623
303.15 K, x2 = 0.1973	2.826
303.15 K, x2 = 0.2994	5.146
303.15 K, x2 = 0.4896	14.66
303.15 K, x2 = 0.5893	24.8
303.15 K, x2 = 0.6884	40.83
303.15 K, x2 = 0.8923	113.3
303.15 K, x2 = 0.9596	158.7
313.15 K, x2 = 0.057	0.953
313.15 K, x2 = 0.0943	0.744
313.15 K, x2 = 0.1995	0.789
313.15 K, x2 = 0.2856	1.631
313.15 K, x2 = 0.4877	7.46
313.15 K, x2 = 0.6781	21.08
313.15 K, x2 = 0.7994	38.25
313.15 K, x2 = 0.8941	61
313.15 K, x2 = 0.9553	83.2
